Here are results for eight compounds from patent US9593099B2, “Compounds and compositions as protein kinase inhibitors” (Array BioPharma, Inc., priority 2009, dated 2017).

Data set [1] in a line: In Vivo Pharmacokinetics Assay in mouse. On the procedure: In Vivo Pharmacokinetics Assay
Full pharmacokinetics study: Male Balb/c mice (n=3, body weights 22-25 g) or male Wistar rats (n=3, body weights 250-300 g) were administered the test compound intravenously via the lateral tail vein or orally via gavage. The formulation was typically a 2.5 mg/mL solution of the compound in 75% PEG300 and 25% D5W. Six blood samples of 50 μL each were collected serially for 24 h after dosing. The blood samples were centrifuged to separate the plasma. Plasma samples were analyzed and quantified by LC-MS/MS.
Rapid pharmacokinetics study: Male Balb/c mice (n=3, body weights 22-25 g) or male Wistar rats (n=3, body weights 250-300 g) were administered the test compound intravenously (IV) via the lateral tail vein or orally (PO) via gavage. The formulation was typically a 2.5 mg/mL solution of the compound in 75% PEG300 and 25% D5W. Six blood samples of 50 μL each were collected serially for 24 h after dosing. Blood samples were centrifuged and plasma separated and pooled across the three animals at each time point per dose route. Plasma samples were analyzed and quantified by LC-MS/MS.
For both full and rapid pharmacokinetics studies, the following parameters were calculated by non-compartmental regression analysis using Winnonlin 5.0 software (Pharsight, Mountain View, Calif., USA): plasma clearance (Cl), plasma maximum concentration (Cmax), plasma area-under-the-concentration-time-curve (AUC0-inf), and percent oral bioavailability (F %).

Data set [2] in a line: Liver Microsomal Clearance Assay, human. The format is in vitro ADME. The text has this:
Liver Microsomal Clearance Assay
The in vitro microsomal clearance assay is designed to assess potential risks associated with hepatic metabolic stability of compounds. […] These values may be scaled to predict hepatic metabolic clearance rate (CLh, mL/min/kg) and extraction ratio (ER, expressed as a ratio of the predicted hepatic metabolic clearance to hepatic blood flow in that species). In general, compounds with high predicted CLint or ER in vitro are considered to be at high risk for exposure-limiting metabolism in vivo.

The subject of the next data set is SW620 cells. Kind of data set: SW620 Cell Viability Assay (Cell Titer Glo). The format is cell-based. The settings on record: 9 serial dilutions between 10 and 0.002 μM, without MEK inhibitor. As to the method: The present invention also includes combinations of the BRaf inhibitors disclosed in this invention with other agents. In particular, the present invention provides for combinations with MEK1/2 inhibitors. FIG. 1 illustrates that the addition of a MEK small molecule inhibitor can reverse the induced ERK signaling, cell growth and transformation caused by a Raf small molecule inhibitor.
SW620 Cell Viability Assay
SW620 cells were seeded in 1640 RPMI+10% FBS at a density of 1500 cells per 96-well in black walled, clear bottom tissue culture treated plates. Test compounds were serially diluted in DMSO then added to the cells (final DMSO concentration of 0.1%) and incubated at 37° C. and 5% CO2 for 4 days. To measure cell viability, cell plates were brought to room temperature, culture media was removed, and 200 μl of Cell Titer-Glo reagent (Promega, kit components mixed as per the manufacturer's protocol then diluted 1:2 with growth media) was added to each well. Plates were shaken for 5 minutes, then incubated at room temperature for 5 minutes, and the luminescence was measured (Trilux, Perkin Elmer).
(In general: In ATP-based viability assays light output follows the ATP content of the culture.)

A further data set relates to p38α MAP Kinase. The experiment in a line: A549 p38α MAP Kinase Bright-Glo Reporter Gene Assay. The format is cell-based. The settings on record: ratio of A549 p38 RGA IC50 to A375 CP IC50. As to the method:
A549 p38α MAP Kinase Bright-Glo Reporter Gene Assay
A549 cells were stably-transfected with the IL-8 promoter driven reporter, pGL3-IL8-Luc. The cells were plated at 4×10^5/ml into 384-well solid white plates (40 ul/well, 5% CD-FBS, 1×P/S, DMEM) and were incubated overnight (18-20 hours) at 37° C. Test compounds were serially diluted in DMSO, then 50 nl of test solution was added to the incubation (final DMSO concentration of 0.1%). After incubating with test compound for 30 min, cells were stimulated with 1 ng/ml IL-1 beta (10 ul of 5 ng/ml solution per well). Bright-Glo (25 ul/well) was added to measure luciferase expression after 7-8 hours of stimulation.
On the technique in general: Reporter assays use an easily measured gene product as a stand-in for the process of interest.

`CCCS(=O)(=O)Nc1cc(Cl)cc(-c2nn(C(C)C)cc2-c2ccnc(NC[C@H](C)NC(=O)OC)n2)c1F` [Compound 1, Methyl N-[(2S)-1-[(4-{3-[5-chloro-2-fluoro-3-(propane-1-sulfonamido)phenyl]-1-(propan-2-yl)-1H-pyrazol-4-yl}pyrimidin-2-yl)amino]propan-2-yl]carbamate]: in data set [1] (PO/IV 5/2 mg/kg, n = 1), the F was 46 (n = 1) %. In the case of `COC(=O)N[C@@H](C)CNc1nccc(-c2cn(C(C)C)nc2-c2c(F)ccc(NS(C)(=O)=O)c2F)n1` [Compound 6, methyl N-[(2S)-1-({4-[3-(2,6-difluoro-3-methanesulfonamidophenyl)-1-(propan-2-yl)-1H-pyrazol-4-yl]pyrimidin-2-yl}amino)propan-2-yl]carbamate], the “ER (human)” value in data set [2] was 0.69. The F in data set [1] (PO/IV 10/2 mg/kg) was 15 ± 3%. With `COC(=O)N[C@@H](C)CNc1nccc(-c2cn(C(C)C)nc2-c2cc(Cl)cc(NS(C)(=O)=O)c2F)n1` [Compound 9, Methyl N-[(2S)-1-({4-[3-(5-chloro-2-fluoro-3-methanesulfonamidophenyl)-1-(propan-2-yl)-1H-pyrazol-4-yl]pyrimidin-2-yl}amino)propan-2-yl]carbamate], the “ER (human)” value in data set [2] is reported as below 0.21. The same compound displayed a F in data set [1] (PO/IV 10/2 mg/kg) of 43 ± 6%. Besides, in the data set with SW620 cells, the “effect on cellular proliferation (negative inhibition in FIG. 1)” value is reported as “induction in cellular proliferation”.

As to `COC(=O)NC[C@H](C)Nc1nccc(-c2cn(C(C)C)nc2-c2cc(Cl)cc(NS(C)(=O)=O)c2F)n1` [Compound 32, Methyl N-[(2S)-2-({4-[3-(5-chloro-2-fluoro-3-methanesulfonamidophenyl)-1-(propan-2-yl)-1H-pyrazol-4-yl]pyrimidin-2-yl}amino)propyl]carbamate], the “(p38 RGA)/(A375) ratio” value in the data set on p38α MAP Kinase is reported as 91. For `CCCS(=O)(=O)Nc1ccc(F)c(-c2nn(C(C)C)cc2-c2ccnc(NC[C@H](C)NC(=O)OC)n2)c1F` [Compound 7, Methyl N-[(2S)-1-[(4-{3-[2,6-difluoro-3-(propane-1-sulfonamido)phenyl]-1-(propan-2-yl)-1H-pyrazol-4-yl}pyrimidin-2-yl)amino]propan-2-yl]carbamate], the F in data set [1] (PO/IV 10/2 mg/kg) is 8 ± 7%.

For `COC(=O)N[C@@H](C)CNc1nccc(-c2cn(C(C)C)nc2-c2cccc(NS(C)(=O)=O)c2F)n1` [Compound 4, methyl N-[(2S)-1-({4-[3-(2-fluoro-3-methanesulfonamidophenyl)-1-(propan-2-yl)-1H-pyrazol-4-yl]pyrimidin-2-yl}amino)propan-2-yl]carbamate], in data set [1] (PO/IV 10/2 mg/kg), the F was 36 ± 6%. For the compound `CCCS(=O)(=O)Nc1cccc(-c2nn(C(C)C)cc2-c2ccnc(NC[C@H](C)NC(=O)OC)n2)c1F` [Compound 3, methyl N-[(2S)-1-[(4-{3-[2-fluoro-3-(propane-1-sulfonamido)phenyl]-1-(propan-2-yl)-1H-pyrazol-4-yl}pyrimidin-2-yl)amino]propan-2-yl]carbamate], the F in data set [1] (PO/IV 5/2 mg/kg, n = 1) is listed as 6 (n = 1) %. On to `CNc1nccc(-c2cn(C(C)C)nc2-c2cc(Cl)cc(NS(C)(=O)=O)c2F)n1` [Compound 29, N-(5-chloro-2-fluoro-3-{4-[2-(methylamino)pyrimidin-4-yl]-1-(propan-2-yl)-1H-pyrazol-3-yl}phenyl)methanesulfonamide], for which the “(p38 RGA)/(A375) ratio” value with p38α MAP Kinase was 220.
